Measurements as given in patent US9561228B2 (Celgene Avilomics Research, Inc., priority 2013, dated 2017).

Key:
Format in all cases: cell-based
[1] = test system: A375 cells (malignant melanoma); test: Inhibition of cancer cell proliferation, A375 (CellTiterGlo, 72 hours); settings: Homo sapiens, A-375
How it was run: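 A375 melanoma cells, 3000/well, exposed 72 h at 37 °C to compound in 3-fold serial dilutions (solution added as 2× stock starting at 5,000 nM in serum-free DMEM). CellTiterGlo luminescence converted to cell number via standard curve; % inhibition vs untreated control, GI50 from curve fit.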

[2] = test system: ERK1/2 phosphorylation of p90RSK in HT29 cells; test: pRSK MSD Assay in HT29 cells; settings: Homo sapiens, HT-29, read-out: ERK1/ERK2 PRSK MSD HT29 EC50
How it was run: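 Serum-starved HT29 cells (0.1% FBS overnight) treated with test compound for 120 min at 37° C, then lysed with protease and phosphatase inhibitors. Phospho-p90RSK quantified by MSD sandwich immunoassay: RSK capture antibody, phospho-RSK detection antibody plus Sulfo-tagged antibody, electrochemiluminescence read.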

[3] = test system: ERK1/2 phosphorylation of p90RSK in HCT116 cells; test: Detection of total and phospho-RSK by MSD ELISA (HCT116); settings: Homo sapiens, HCT-116, read-out: ERK1/ERK2 PRSK HCT116 EC50
How it was run: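 HCT116 cells treated with compound in RPMI/10% FBS for 2 h at 37° C, then lysed. Phospho-RSK (Ser380) and total RSK in lysates measured by MSD sandwich electrochemiluminescence ELISA as a readout of ERK1/2 activity.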

SMILES	GI50 [1]	EC50 [2]	EC50 [3]
C=CC(=O)Nc1cc(C)ccc1Nc1nc(Nc2cc(C(C)=O)ccc2C)ncc1C(F)(F)F [Compound I-84, N-(2-((2-((5-Acetyl-2-methylphenyl)amino)-5-(trifluoromethyl)pyrimidin-4-yl)amino)-5-methylphenyl)acrylamide]	101 to 500 nM	< 100 nM	–
C=CC(=O)Nc1ccccc1Nc1nc(Nc2cc(OC)ncc2C)ncc1C(F)(F)F [Compound I-85, N-(2-((2-((2-Methoxy-5-methylpyridin-4-yl)amino)-5-(trifluoromethyl)pyrimidin-4-yl)amino)phenyl)acrylamide]	< 100 nM	< 100 nM	< 100 nM
C=CC(=O)Nc1ccccc1Nc1nc(Nc2cc(OC)nc(N3CCN(C(C)=O)CC3)c2)ncc1C(F)(F)F [Compound I-92]	< 100 nM	–	< 100 nM
C=CC(=O)Nc1cc(C)ccc1Nc1nc(Nc2cc(OC)nc(N3CCN(C(C)=O)CC3)c2)ncc1C(F)(F)F [Compound I-93, N-(2-((2-((2-(4-Acetylpiperazin-1-yl)-6-methoxypyridin-4-yl)amino)-5-(trifluoromethyl)pyrimidin-4-yl)amino)-5-methylphenyl)acrylamide]	< 100 nM	< 100 nM	< 100 nM
C=CC(=O)Nc1cc(C)ccc1Nc1nc(Nc2cc(OC)nc(OC)c2)ncc1C(F)(F)F [Compound I-96]	101 to 500 nM	–	–
C=CC(=O)Nc1cc(C)ccc1Nc1nc(Nc2cc(NCCOC)nc(OC)c2)ncc1C(F)(F)F [Compound I-294, N-(2-((2-((2-methoxy-6-((2-methoxyethyl)amino)pyridin-4-yl)amino)-5-(trifluoromethyl)pyrimidin-4-yl)amino)-5-methylphenyl)acrylamide]	< 100 nM	< 100 nM	< 100 nM
C=CC(=O)Nc1cc(C)ccc1Nc1nc(Nc2cc(N[C@H]3CC[C@](C)(O)CC3)nc(OC)c2)ncc1C(F)(F)F [Compound I-327, N-(2-((2-((2-((trans-4-hydroxy-4-methylcyclohexyl)amino)-6-methoxypyridin-4-yl)amino)-5-(trifluoromethyl)pyrimidin-4-yl)amino)-5-methylphenyl)acrylamide]	< 100 nM	–	< 100 nM
C=CC(=O)Nc1cc(C)ccc1Nc1nc(Nc2nc(OC)ncc2Cl)ncc1C(F)(F)F [Compound I-344, N-(2-((2-((5-chloro-2-methoxypyrimidin-4-yl)amino)-5-(trifluoromethyl)pyrimidin-4-yl)amino)-5-methylphenyl)acrylamide]	101 to 500 nM	–	101 to 500 nM
C=CC(=O)Nc1cc(C)ccc1Nc1nc(Nc2nc(OC)ncc2C#N)ncc1C(F)(F)F [Compound I-346, N-(2-((2-((5-cyano-2-methoxypyrimidin-4-yl)amino)-5-(trifluoromethyl)pyrimidin-4-yl)amino)-5-methylphenyl)acrylamide]	101 to 500 nM	101 to 500 nM	101 to 500 nM
C=CC(=O)Nc1cc(C)ccc1Nc1nc(Nc2nc(OC)ncc2C)ncc1C(F)(F)F [Compound I-347, N-(2-((2-((2-methoxy-5-methylpyrimidin-4-yl)amino)-5-(trifluoromethyl)pyrimidin-4-yl)amino)-5-methylphenyl)acrylamide]	< 100 nM	< 100 nM	101 to 500 nM
C=CC(=O)Nc1cc(C)ccc1Nc1nc(Nc2nc(OC)ncc2OC)ncc1C(F)(F)F [Compound I-349, N-(2-((2-((2,5-dimethoxypyrimidin-4-yl)amino)-5-(trifluoromethyl)pyrimidin-4-yl)amino)-5-methylphenyl)acrylamide]	101 to 500 nM	101 to 500 nM	101 to 500 nM
C=CC(=O)Nc1cc(C)ccc1Nc1nc(Nc2ncc(C(F)(F)F)c(OC)n2)ncc1C(F)(F)F [Compound I-354, N-(2-((2-((4-methoxy-5-(trifluoromethyl)pyrimidin-2-yl)amino)-5-(trifluoromethyl)pyrimidin-4-yl)amino)-5-methylphenyl)acrylamide]	501 to 999 nM	101 to 500 nM	101 to 500 nM
C=CC(=O)Nc1cc(C)ccc1Nc1nc(Nc2nc(OC)ncc2C(F)(F)F)ncc1C(F)(F)F [Compound I-355, N-(2-((2-((2-methoxy-5-(trifluoromethyl)pyrimidin-4-yl)amino)-5-(trifluoromethyl)pyrimidin-4-yl)amino)-5-methylphenyl)acrylamide]	101 to 500 nM	101 to 500 nM	101 to 500 nM
C=CC(=O)Nc1cc(C)ccc1Nc1nc(Nc2ncc(F)c(OC)n2)ncc1C(F)(F)F [Compound I-356, N-(2-((2-((5-fluoro-4-methoxypyrimidin-2-yl)amino)-5-(trifluoromethyl)pyrimidin-4-yl)amino)-5-methylphenyl)acrylamide]	501 to 999 nM	101 to 500 nM	501 to 999 nM
C=CC(=O)Nc1cc(C)ccc1Nc1nc(Nc2nc(OC)ncc2F)ncc1C(F)(F)F [Compound I-357, N-(2-((2-((5-fluoro-2-methoxypyrimidin-4-yl)amino)-5-(trifluoromethyl)pyrimidin-4-yl)amino)-5-methylphenyl)acrylamide]	101 to 500 nM	101 to 500 nM	101 to 500 nM
C=CC(=O)Nc1cc(C)ccc1Nc1nc(Nc2cc(OCCOC)ncc2C)ncc1C(F)(F)F [Compound I-359, N-(2-((2-((2-(2-methoxyethoxy)-5-methylpyridin-4-yl)amino)-5-(trifluoromethyl)pyrimidin-4-yl)amino)-5-methylphenyl)acrylamide]	101 to 500 nM	101 to 500 nM	501 to 999 nM
C=CC(=O)Nc1cc(C)ccc1Nc1nc(Nc2nc(OC)ccc2Cl)ncc1C(F)(F)F [Compound I-360, N-(2-((2-((3-chloro-6-methoxypyridin-2-yl)amino)-5-(trifluoromethyl)pyrimidin-4-yl)amino)-5-methylphenyl)acrylamide]	101 to 500 nM	101 to 500 nM	501 to 999 nM
C=CC(=O)Nc1cc(C)ccc1Nc1nc(Nc2cc(OC)cnc2Cl)ncc1C(F)(F)F [Compound I-361, N-(2-((2-((2-chloro-5-methoxypyridin-3-yl)amino)-5-(trifluoromethyl)pyrimidin-4-yl)amino)-5-methylphenyl)acrylamide]	101 to 500 nM	< 100 nM	101 to 500 nM
C=CC(=O)Nc1cc(C)ccc1Nc1nc(Nc2nc(O)ncc2C)ncc1C(F)(F)F [Compound I-364, N-(2-((2-((2-hydroxy-5-methylpyrimidin-4-yl)amino)-5-(trifluoromethyl)pyrimidin-4-yl)amino)-5-methylphenyl)acrylamide]	< 100 nM	< 100 nM	101 to 500 nM
C=CC(=O)Nc1cc(C)c(F)cc1Nc1nc(Nc2nc(OC)ncc2Cl)ncc1C(F)(F)F [Compound I-374, N-(2-((2-((5-chloro-2-methoxypyrimidin-4-yl)amino)-5-(trifluoromethyl)pyrimidin-4-yl)amino)-4-fluoro-5-methylphenyl)acrylamide]	< 100 nM	< 100 nM	< 100 nM
C=CC(=O)Nc1cc(C)ccc1Nc1nc(Nc2cc(C(N)=O)nn2C)ncc1C(F)(F)F [Compound I-423, 5-((4-((2-acrylamido-4-methylphenyl)amino)-5-(trifluoromethyl)pyrimidin-2-yl)amino)-1-methyl-1H-pyrazole-3-carboxamide]	–	> 1000 nM	> 1000 nM
C=CC(=O)Nc1cc(C)ccc1Nc1nc(Nc2cc(C(=O)NC)nn2C)ncc1C(F)(F)F [Compound I-424, 5-((4-((2-acrylamido-4-methylphenyl)amino)-5-(trifluoromethyl)pyrimidin-2-yl)amino)-N,1-dimethyl-1H-pyrazole-3-carboxamide]	–	101 to 500 nM	101 to 500 nM
C=CC(=O)Nc1cc(O[C@@H](C)C(=O)N2CCN(C(C)=O)CC2)ccc1Nc1nc(Nc2cc(OC)ncc2C)ncc1C(F)(F)F [Compound I-425, (S)—N-(5-((1-(4-acetylpiperazin-1-yl)-1-oxopropan-2-yl)oxy)-2-((2-((2-methoxy-5-methylpyridin-4-yl)amino)-5-(trifluoromethyl)pyrimidin-4-yl)amino)phenyl)acrylamide]	–	101 to 500 nM	501 to 999 nM
C=CC(=O)Nc1cc(O[C@@H](C)C(=O)N2CCN(S(C)(=O)=O)CC2)ccc1Nc1nc(Nc2cc(OC)ncc2C)ncc1C(F)(F)F [Compound I-426, (S)—N-(2-((2-((2-methoxy-5-methylpyridin-4-yl)amino)-5-(trifluoromethyl)pyrimidin-4-yl)amino)-5-((1-(4-(methylsulfonyl)piperazin-1-yl)-1-oxopropan-2-yl)oxy)phenyl)acrylamide]	–	< 100 nM	101 to 500 nM
C=CC(=O)Nc1cc(CCc2cnn(C)c2)ccc1Nc1nc(Nc2cc(OC)ncc2C)ncc1C(F)(F)F [Compound I-427, N-(2-((2-((2-methoxy-5-methylpyridin-4-yl)amino)-5-(trifluoromethyl)pyrimidin-4-yl)amino)-5-(2-(1-methyl-1H-pyrazol-4-yl)ethyl)phenyl)acrylamide]	–	101 to 500 nM	501 to 999 nM
C=CC(=O)Nc1cc(C)ccc1Nc1nc(Nc2cc(OC)ncc2C(F)F)ncc1C(F)(F)F [Compound I-431, N-(2-((2-((5-(difluoromethyl)-2-methoxypyridin-4-yl)amino)-5-(trifluoromethyl)pyrimidin-4-yl)amino)-5-methylphenyl)acrylamide]	–	101 to 500 nM	501 to 999 nM
